# Test results as given in patent US20240116877A1, “KIT KINASE INHIBITORS AND METHODS OF USE THEREOF” (Deciphera Pharmaceuticals, LLC, priority 2021, published 2024).
# Where two headings read alike, the source gives them in different places.
# What was measured:
# [1] = system: GIST 430 cells; experiment: GIST 430 Cell Proliferation Assay (resazurin); format: cell-based; conditions: Homo sapiens; GIST430 cell proliferation
# Method: GIST 430 Cell Proliferation Assay
# (§1) A serial dilution of test compound was dispensed into a 96-well black clear bottom plate (Corning, Corning, NY). Five thousand cells were added per well in 200 μL complete growth medium. Plates were incubated for 115 h at 37 degrees Celsius, 5% CO2, 95% humidity. At the end of the incubation period 40 μL of a 440 μM solution of resazurin (Sigma, St. Louis, MO) in PBS was added to each well and incubated for an additional 5 h at 37 degrees Celsius, 5% CO2, 95% humidity. Plates were read on a Synergy2 reader (Biotek, Winooski, VT) using an excitation of 540 nm and an emission of 600 nm. Data was analyzed using Prism software (Graphpad, San Diego, CA) to calculate IC50 values.
# [2] = system: Ba/F3 KIT mutant cells; experiment: Ba/F3 mutant KIT Cell Proliferation Assays (resazurin); format: cell-based; conditions: Mus musculus, BaF3
# Method: Ba/F3 KIT Mutant Cell Line Transduction and Expansion
# Several different KIT cDNA encoding various primary and secondary mutations were cloned into a pLV(Exp]-CMV>(cDNA):IRES:puro vector. These vectors were constructed and packaged by VectorBuilder.
# Exponentially grown Ba/F3 cells (1×10^6 cells in 1 ml medium) were infected with 60 μl of viral suspension in a 6-well plate in the presence of mIL-3 (10 ng/ml) and polybrene (7.5 μg/ml) (Vector Builder) and incubated for 16 h. After 16 h, the cells were centrifuged, and viral supernatant was discarded. The cells were then re-suspended in fresh medium and allowed to recover for another day. After 72 h post infection, the cells were seeded with complete medium with mIL-3 and with 1 μg/ml puromycin added to medium for selection. After 48 h, cells without viral infection die, whereas successfully transduced cells were collected and changed to fresh medium with 5 ng/ml of IL-3. After a week or two with gradual withdrawal of mIL3 the cells that can continue to proliferate in the absence of mIL3 were exponentially expanded and were frozen down for banking.
# Ba/F3 mutant KIT Cell Proliferation Assays
# as §1, with “a 384-well” for “a 96-well”, “NY). Six hundred and twenty-five” for “NY). Five thousand”, “in 50” for “in 200”, “for 68” for “for 115”, “at 37° C.,” for “at 37 degrees Celsius,”, “period 10” for “period 40”
# [3] = molecular target: c-KIT kinase (uKIT) (Homo sapiens (Human), UniProt P10721); experiment: Biochemical Assay for uKIT (coupled pyruvate kinase/lactate dehydrogenase assay); conditions: Inhibition of biochemical activity of uKIT kinase; 1 mM ATP
# Sequence of c-KIT kinase (uKIT) (P10721 other isoform, or with tags, fused parts or gaps): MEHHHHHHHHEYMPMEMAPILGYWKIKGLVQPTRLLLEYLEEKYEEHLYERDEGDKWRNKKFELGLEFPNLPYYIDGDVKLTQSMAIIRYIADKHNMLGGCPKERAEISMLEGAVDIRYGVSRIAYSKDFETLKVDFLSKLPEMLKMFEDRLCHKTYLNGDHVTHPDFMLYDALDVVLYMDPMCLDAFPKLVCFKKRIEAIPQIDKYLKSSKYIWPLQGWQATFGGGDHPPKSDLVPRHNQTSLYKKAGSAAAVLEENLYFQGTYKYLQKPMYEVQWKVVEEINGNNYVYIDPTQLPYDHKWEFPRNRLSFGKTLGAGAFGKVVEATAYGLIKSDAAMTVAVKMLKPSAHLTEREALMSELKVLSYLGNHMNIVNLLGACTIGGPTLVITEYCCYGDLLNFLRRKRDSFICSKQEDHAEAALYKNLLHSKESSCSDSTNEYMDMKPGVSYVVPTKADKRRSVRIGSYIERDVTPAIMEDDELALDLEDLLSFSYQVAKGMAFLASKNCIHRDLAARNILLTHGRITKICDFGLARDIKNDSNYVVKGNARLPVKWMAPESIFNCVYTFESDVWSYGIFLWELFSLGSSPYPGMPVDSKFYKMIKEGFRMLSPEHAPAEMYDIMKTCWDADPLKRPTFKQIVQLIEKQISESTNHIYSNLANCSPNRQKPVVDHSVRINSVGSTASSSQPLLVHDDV
# Method: Biochemical Assay for uKIT
# Activity of c-KIT kinase (SEQ. ID NO. 1 or SEQ. ID NO. 2) was determined spectroscopically using a coupled pyruvate kinase/lactate dehydrogenase assay that continuously monitors the ATP hydrolysis-dependent oxidation of NADH (e.g., Schindler et al. Science (2000) 289: 1938-1942). Assays were conducted in 384-well plates (100 μL final volume) using 16 nM (Decode, SEQ ID No. 1) or 4.36 nM (Signal Chem, SEQ. ID No. 2), 0.7 mg/mL PE4Y substrate, 1.5 units pyruvate kinase, 2.1 units lactate dehydrogenase, 1 mM phosphoenol pyruvate, 0.28 mM NADH and 1 mM ATP in assay buffer (100 mM Tris, pH 7.5, 15 mM MgCl2, 0.5 mM DTT, 0.1% octyl-glucoside, 0.002% (w/v) BSA, and 0.002% Triton X-100). Inhibition of KIT was measured by adding serial diluted test compound (final assay concentration of 1% DMSO). A decrease in absorption at 340 nm was monitored continuously for 6 h at 30° C. on a multi-mode microplate reader (BioTek). The reaction rate was calculated using the 2-3 h time frame. The reaction rate at each concentration of compound was converted to percent inhibition using controls (i.e., reaction with no test compound and reaction with a known inhibitor) and IC50 values were calculated using software routines in Prism (GraphPad software).
# [4] = Ba/F3 KIT AYdup-D816G mutant cell proliferation, read-out: AYdup-D816G IC50
# [5] = Ba/F3 KIT AYdup-V654A mutant cell proliferation, read-out: AYdup-V654A IC50
# [6] = Ba/F3 KIT exon11del-V654A mutant cell proliferation, read-out: exon11del-V654A IC50
# [7] = Ba/F3 KIT exon11del-Y823D mutant cell proliferation, read-out: exon11del-Y823D IC50
# [8] = Ba/F3 KIT AYdup mutant cell proliferation, read-out: AYdup IC50
"IC50 [2, 4] [nM]","IC50 [2, 5] [nM]","IC50 [2, 6] [nM]","IC50 [2, 7] [nM]",IC50 [3] [nM],"IC50 [2, 8] [nM]",SMILES,IC50 [1] [nM]
≤ 10,10 to 100,10 to 100,10 to 100,≤ 10,,COCCOc1cc(F)c2c(Nc3ccc(NC(=O)N[C@H]4CC[C@H](C(F)(F)F)CC4)cc3)ncnc2c1 [Example 30],≤ 10
≤ 10,10 to 100,10 to 100,100 to 1000,≤ 10,10 to 100,COCCOc1cc(F)c2c(Nc3ccc(NC(=O)CCCC(C)C)cc3)ncnc2c1 [Example 31],10 to 100
≤ 10,10 to 100,10 to 100,10 to 100,≤ 10,≤ 10,COCCOc1cc(F)c2c(Nc3ccc(NC(=O)NCCC4(OC)CC4)cc3)ncnc2c1 [Example 32],10 to 100
10 to 100,10 to 100,100 to 1000,100 to 1000,10 to 100,,COCCOc1cc(F)c2c(Nc3ccc(NC(=O)NC4CCC(F)(F)CC4)cc3)ncnc2c1 [Example 33],10 to 100
≤ 10,10 to 100,≤ 10,10 to 100,≤ 10,,COCCOc1cc(F)c2c(Nc3ccc(NC(=O)NC4CCC(C)(C)C4)cc3)ncnc2c1 (stereo not shown) [Example 34],10 to 100
10 to 100,10 to 100,10 to 100,10 to 100,≤ 10,≤ 10,COCCOc1cc(F)c2c(Nc3ccc(NC(=O)NCCC4(C#N)CC4)cc3)ncnc2c1 [Example 35],10 to 100
10 to 100,10 to 100,≤ 10,100 to 1000,≤ 10,,COCCOc1cc(F)c2c(Nc3ccc(NC(=O)N[C@H]4CC[C@@H](C(F)(F)F)CC4)cc3)ncnc2c1 [Example 36],10 to 100
10 to 100,10 to 100,10 to 100,10 to 100,10 to 100,≤ 10,COC(C)(C)CCNC(=O)Nc1ccc(Nc2ncnc3cc(OCCN4CCOCC4)cc(F)c23)cc1 [Example 37],≤ 10
≤ 10,10 to 100,≤ 10,≤ 10,10 to 100,≤ 10,COCCOc1cc(F)c2c(Nc3ccc(NC(=O)NCCOC(C)(C)C)cc3)ncnc2c1 [Example 38],≤ 10
10 to 100,10 to 100,10 to 100,10 to 100,≤ 10,≤ 10,CC(C)(F)CCNC(=O)Nc1ccc(Nc2ncnc3cc(OCCN4CCOCC4)cc(F)c23)cc1 [Example 39],≤ 10
,,> 1000,,> 1000,,COCCOc1cc(F)c2c(Nc3ccc(NC(=O)CC4CCN(C)CC4)cc3)ncnc2c1 [Example 40],> 1000
10 to 100,10 to 100,10 to 100,10 to 100,≤ 10,≤ 10,COCCOc1cc(F)c2c(Nc3ccc(NC(=O)CC4CCC(F)(F)CC4)cc3)ncnc2c1 [Example 41],10 to 100
10 to 100,10 to 100,10 to 100,10 to 100,≤ 10,≤ 10,COCCOc1cc(F)c2c(Nc3ccc(NC(=O)NCCOC(F)(F)F)cc3)ncnc2c1 [Example 42],10 to 100
100 to 1000,100 to 1000,100 to 1000,100 to 1000,10 to 100,10 to 100,COCCOc1cc(F)c2c(Nc3ccc(NC(=O)C4(C(=O)NCC(C)(C)C)CC4)cc3)ncnc2c1 [Example 44],100 to 1000
10 to 100,10 to 100,10 to 100,100 to 1000,≤ 10,≤ 10,COCCOc1cc(F)c2c(Nc3ccc(NC(=O)CCCC(C)(C)F)cc3)ncnc2c1 [Example 45],≤ 10
10 to 100,100 to 1000,10 to 100,100 to 1000,≤ 10,≤ 10,COCCOc1cc(F)c2c(Nc3ccc(NC(=O)OCCC(C)(C)C#N)cc3)ncnc2c1 [Example 46],10 to 100
10 to 100,10 to 100,10 to 100,10 to 100,≤ 10,≤ 10,COCCOc1cc(F)c2c(Nc3ccc(NC(=O)COCCC(C)C)cc3)ncnc2c1 [Example 47],≤ 10
100 to 1000,100 to 1000,100 to 1000,100 to 1000,100 to 1000,10 to 100,COCCOc1cc(F)c2c(Nc3ccc(NC(=O)COCC(F)(F)F)cc3)ncnc2c1 [Example 48],100 to 1000
10 to 100,100 to 1000,10 to 100,100 to 1000,≤ 10,≤ 10,COCCOc1cc(F)c2c(Nc3ccc(NC(=O)COCC(C)C)cc3)ncnc2c1 [Example 49],10 to 100
> 1000,100 to 1000,> 1000,> 1000,100 to 1000,100 to 1000,COCCOc1cc(F)c2c(Nc3ccc(NC(=O)C4(C(=O)N(C)CC(C)(C)C)CC4)cc3)ncnc2c1 [Example 50],100 to 1000
10 to 100,10 to 100,10 to 100,10 to 100,10 to 100,10 to 100,COCCOc1cc(F)c2c(Nc3ccc(NC(=O)CC(=O)N(C)CC(C)(C)C)cc3)ncnc2c1 [Example 51],≤ 10
10 to 100,100 to 1000,10 to 100,100 to 1000,10 to 100,≤ 10,COCCOc1cc(F)c2c(Nc3ccc(NC(=O)OCCC(C)(C)F)cc3)ncnc2c1 [Example 52],10 to 100
> 1000,> 1000,> 1000,,> 1000,100 to 1000,COCCOc1cc(F)c2c(Nc3ccc(NC(=O)CCN4CCCC4=O)cc3)ncnc2c1 [Example 53],100 to 1000
100 to 1000,100 to 1000,100 to 1000,100 to 1000,10 to 100,10 to 100,COCCOc1cc(F)c2c(Nc3ccc(NC(=O)NCCN4CCCC4=O)cc3)ncnc2c1 [Example 54],10 to 100
,100 to 1000,10 to 100,100 to 1000,100 to 1000,,COCCOc1cc(F)c2c(Nc3ccc(NC(=O)C(C)NC(=O)CC(C)C)cc3)ncnc2c1 (stereo not shown) [Example 55],100 to 1000
,10 to 100,10 to 100,10 to 100,≤ 10,,COCCOc1cc(F)c2c(Nc3ccc(NC(=O)COCC4CCCC4)cc3)ncnc2c1 [Example 56],≤ 10
